This note sets out measurements from ChEMBL document CHEMBL3507680, “University of Dundee, Gates Library screen for HepG2 cell viability”.

The data set can be described thus: Human HepG2 cell viability assay in 384 well format. Set-up: dose 125 nL, time 70.5 hour; cytotoxicity at 70.5 h: concentration not given beside the values. The settings on record: HepG2 cells, read-out: Inhibition. It is filed as toxicity, cell-based.

With `COc1cc(NC(=O)c2cc(Cl)ccc2F)c(C(=O)N(C)C)cc1OC`, the cytotoxicity at 70.5 h is -15.4%.
On to `CC(CN1CCOCC1)NC(=O)NCc1ccoc1` (stereo not drawn), for which the cytotoxicity at 70.5 h came out at 4.07%.
The result for `COc1ccc(-c2nnc(SC(C)C(=O)NC3CCCC3)[nH]2)c(OC)c1` (stereo not drawn) reads 42.2%; that for `COc1ccc(-c2nnc(SC(C)C(N)=O)[nH]2)c(OC)c1` (stereo not drawn), -8.05%.
The result for `CS(=O)(=O)N1CCN(Cc2csc(-c3ncccn3)n2)CC1` reads 15.5%.
`Cc1nc(N2CCCC(N3CCCC3)C2)c2cnn(C)c2n1` (stereo not drawn): the cytotoxicity at 70.5 h is -5.42%.
The result for `Cc1cccc(-c2c[nH]c(C3CCCN3C(=O)C3CCOCC3)n2)c1` (stereo not drawn) reads -10.3%; that for `COc1c(Br)cccc1CCNC(=O)c1ccon1`, -10.8%.
The result for `FC(F)(F)c1ccnc(N2CCCCCC2)c1` reads -10.6%; that for `CC1CN(C(=O)c2ccnc(OCCN(C)C)c2)c2ccccc21` (stereo not drawn), -14.8%.
As for `CCOC(C(=O)N1CCn2c(CC)nnc2C1)c1ccccc1` (stereo not drawn), the cytotoxicity at 70.5 h is -11.9%.
In the case of `Cc1ccc(CNCc2cccc3cccnc23)c(OC2CCOC2)c1` (stereo not drawn), the cytotoxicity at 70.5 h is 12.2%.
On to `CC(=O)N1CCC(NC(=O)N2CCCC2c2ccsc2)CC1` (stereo not drawn), for which the cytotoxicity at 70.5 h is 6.84%.
With `O=C(Cc1cc2c(cc1Br)OCCO2)NC1CCS(=O)(=O)C1` (stereo not drawn), the cytotoxicity at 70.5 h is 7.44%.
The result for `CN(C)CCN(Cc1ccccn1)C(=O)Nc1cccc(F)c1` reads -9.47%.
Turning to `CN(Cc1ccncc1)C(=O)c1ccc2c(c1O)OC(C)(C)C2`, the cytotoxicity at 70.5 h is -5.32%.
On to `CN(CCNC(=O)N1CCCC1)C(=O)OC(C)(C)C`, for which the cytotoxicity at 70.5 h is -11.5%.
With `N#CCCN(Cc1ccccn1)C(=O)Nc1cccc(F)c1`, the cytotoxicity at 70.5 h is -6.04%.
The result for `CS(=O)(=O)CCCOc1cccc(-n2ccnc2)c1` reads -2.41%.
As for `CN(C)S(=O)(=O)CCCOc1cccc(-n2ccnc2)c1`, the cytotoxicity at 70.5 h was -3.93%.
As to `Nc1nccnc1C(=O)N(Cc1ccccc1O)CC1CCCO1` (stereo not drawn), the cytotoxicity at 70.5 h was -13.9%.
The result for `Cc1nnc(CN(C)C(=O)C(CC(C)C)N2CCCCC2=O)n1C` (stereo not drawn) reads -5.01%.
Regarding `Cc1oc(-c2ccccc2)nc1C(=O)NC1=NCCS1`, the cytotoxicity at 70.5 h is -0.24%.
The result for `Cc1ccc2c(c1)N(C(=O)C1CCCOC1)CCC2` (stereo not drawn) reads -4.9%; that for `Cc1ccc(CNCc2cccc3cn[nH]c23)c(OC2CCOC2)c1` (stereo not drawn), 3.6%; that for `Cc1nc(C(NC(=O)CC(F)(F)F)c2ccc(Cl)cc2)no1` (stereo not drawn), -2.37%.
The result for `COCC(=O)NC(c1ccc(Cl)cc1)c1noc(C)n1` (stereo not drawn) reads -2.49%; that for `O=C(NS(=O)(=O)c1cnn(-c2ccccc2F)c1)c1ccoc1`, 9.38%.
The result for `N#CCCN(Cc1ccccn1)C(=O)Nc1cccnc1` reads -7.42%.
On to `CCOC1CCN(C(=O)NCCN(C)C(=O)OC(C)(C)C)CC1`, for which the cytotoxicity at 70.5 h was -3.79%.
The result for `Cc1ccc(NCc2cccc3cn[nH]c23)cc1OC1CCOC1` (stereo not drawn) reads -0.654%.
The result for `C[S+]([O-])c1cccc(NC(=O)N(CCC#N)Cc2ccccn2)c1` (stereo not drawn) reads -12%.
With `O=C(c1nccc2ccccc12)N(Cc1ccco1)CC1CCCO1` (stereo not drawn), the cytotoxicity at 70.5 h came out at 9.69%.
Turning to `COC(=O)N1CCC(NC(=O)N2CCCC2c2ccsc2)CC1` (stereo not drawn), the cytotoxicity at 70.5 h was -4.05%.
As for `COc1ccc(Cl)cc1CN(C)CC(=O)/N=c1\cc[nH]n1C(C)C1CC1` (stereo not drawn), the cytotoxicity at 70.5 h turned out to be 20.8%.
The result for `CCc1n[nH]c(C2CN(Cc3ncc(CC)o3)CCO2)n1` (stereo not drawn) reads 51.9%; that for `CN1CCCN(CCCNC2CCc3cc4c(cc32)OCCO4)CC1` (stereo not drawn), 8.36%; that for `CCN(C(=O)c1cc2c([nH]c1=O)CCCC2=O)C1CCCCC1`, -5.73%.
The result for `CCN(C(=O)CN1CCCC1c1ccc(F)cc1)c1ccccc1C` (stereo not drawn) reads -3.01%; that for `CCN(C(=O)CN1CCCC1c1ccc(OC)cc1)c1ccccc1` (stereo not drawn), 2.59%; that for `CCOc1ccccc1OCC(=O)NCc1ncc(C)c(OC)c1C`, -10.2%.
The result for `COc1ccccc1OCC(=O)NCc1ncc(C)c(OC)c1C` reads 11.5%; that for `CN(Cc1cnn(C)c1)C(=O)C1COCC(=O)N1Cc1ccccc1` (stereo not drawn), -4.96%.
For the compound `COc1c(C)cnc(CNC(=O)CCOCc2ccccc2)c1C`, the cytotoxicity at 70.5 h is -3.15%.
The result for `CC(C)c1cccc(-n2cc(O)c(C(=O)O)n2)c1` reads -5.44%; that for `CNC(=O)c1ccc(CNC(=O)c2cc(C(C)C)n(C)n2)cc1`, 10.9%; that for `CCCN(C(=O)c1cc2c([nH]c1=O)CCCC2=O)C1CCCCC1`, 27.9%.
The result for `CC(c1ccco1)N(C(=O)c1cc2c([nH]c1=O)CCCC2=O)C1CC1` (stereo not drawn) reads 2.68%; that for `CCC(C)n1cnc(S(=O)(=O)N(C)C)c1` (stereo not drawn), 14.5%.
The result for `CCC(C)n1cnc(S(=O)(=O)N(Cc2cccnc2)C(C)C)c1` (stereo not drawn) reads 3.97%.
As for `CCC(C)n1cnc(S(=O)(=O)N(C)c2cccnc2N(C)C)c1` (stereo not drawn), the cytotoxicity at 70.5 h was -7.28%.
The result for `COc1ccc2c(c1)C(NCCc1ccccn1)CCCO2` (stereo not drawn) reads 16.8%.
As to `O=c1[nH]nc(CNc2ncc(Cl)cn2)[nH]1`, the cytotoxicity at 70.5 h came out at 28.8%.
For the compound `O=C(CN1CCCc2c(F)cc(Br)cc21)N1CCN(C(=O)C2CC2)CC1`, the cytotoxicity at 70.5 h was determined as 17.8%.
For `COCCN(CCOC)C(=O)NC1CCCCC1`, the cytotoxicity at 70.5 h was -4.8%.
`COCc1nc(CNc2cccc(-c3nc(C)c(C)o3)c2)cs1`: the cytotoxicity at 70.5 h is -16.1%.
For `CC(C)c1cccc(-n2cc(O)c(C(=O)NCCCn3cccn3)n2)c1`, the cytotoxicity at 70.5 h was -5.65%.
Consider `COc1ccc2c(c1)C(NCCc1ncc(C)s1)CCCO2` (stereo not drawn), for which the cytotoxicity at 70.5 h is -7.84%.
In the case of `COCC(=O)NCCSCCOc1cccc(Br)c1`, the cytotoxicity at 70.5 h amounted to 32%.
On to `CC(C)(O)CN1CCN(C(=O)COCC2CC2)CC1`, for which the cytotoxicity at 70.5 h stood at 2.07%.
As for `O=C(CCCc1ccccn1)NCC(O)c1c(F)cccc1F` (stereo not drawn), the cytotoxicity at 70.5 h is -1.43%.
Consider `Cc1nc(C2CCCN2C(=O)CN(C)Cc2ccccc2)no1` (stereo not drawn), for which the cytotoxicity at 70.5 h is -2.86%.
Regarding `CC(c1cccnc1)N1CCN(CCO)CC1` (stereo not drawn), the cytotoxicity at 70.5 h stood at 7.45%.
The result for `NC(=O)NC(CC(=O)NCCc1cccc(F)c1)c1ccccc1` (stereo not drawn) reads -6.09%; that for `NC(=O)NC(CC(=O)NCCc1ccc(F)cc1)c1ccccc1` (stereo not drawn), 1.48%.
Regarding `CCC(O)CN(CC(=O)Nc1cc(C)no1)c1ccccc1` (stereo not drawn), the cytotoxicity at 70.5 h was -3.59%.
Consider `CC(C)(C)C(O)CN1CCN(C(=O)COCC2CC2)CC1` (stereo not drawn), for which the cytotoxicity at 70.5 h stood at 1.65%.
The result for `CC(C)(O)CN1CCN(C(=O)COCC(F)(F)F)CC1` reads 15.1%; that for `COc1cccc(SCC(=O)N2CCCC(N3CCCC3=O)C2)c1` (stereo not drawn), -1.58%; that for `O=C(CSc1ccccc1)N1CCC(N2CCCCC2=O)CC1`, 19%.
As for `CCN(Cc1ccoc1)C(C(N)=O)c1ccc(Br)cc1` (stereo not drawn), the cytotoxicity at 70.5 h is 16.2%.
As to `CC(C)C(O)CNC(=O)CCCc1ccccn1` (stereo not drawn), the cytotoxicity at 70.5 h was 2.25%.
The result for `CCCc1ccc(S(=O)(=O)NC2(CC(N)=O)CCC2)cc1` reads 1.66%; that for `Cc1[nH]ncc1C(C)NCc1cccnc1` (stereo not drawn), 5.33%; that for `CC(=O)Nc1ccc(C(=O)N2CCOc3nc(C)ccc32)cc1`, -0.0601%.
The result for `COCC(=O)NCCc1ccc(Cl)s1` reads -9.93%; that for `O=C(CN1CCN(CCO)CC1)NC(C1CC1)C1CC1`, -5.18%; that for `CCN(Cc1ccc(Cl)s1)S(=O)(=O)CC`, 0.4%.
On to `CCN(Cc1ccc(Cl)s1)S(=O)(=O)CCOC`, for which the cytotoxicity at 70.5 h is -13.3%.
The result for `c1csc(CCN2CCCC2c2noc(C3CC3)n2)c1` (stereo not drawn) reads -7.22%; that for `Cc1nc(C2CCCN2CCc2cccs2)no1` (stereo not drawn), -10.4%.
The result for `CC(C(=O)N1CCc2sccc2C1)N1CCCN(C2CC2)CC1` (stereo not drawn) reads -10.7%; that for `Cc1nc(C2CCCN2CCc2ccccn2)no1` (stereo not drawn), -5.46%.
The result for `Cn1ccc(C(=O)NCc2cccc(Cn3ccnc3)c2)cc1=O` reads -4.36%; that for `Cc1nccn1Cc1cccc(CNC(=O)c2ccn(C)c(=O)c2)c1`, 13.1%; that for `Cc1ccc2nc(NCCCN3CCCCCC3=O)n(C)c(=O)c2c1`, -20%.
On to `Cc1nc(NC(=O)C(C)S(C)(=O)=O)sc1Cc1ccc(F)cc1` (stereo not drawn), for which the cytotoxicity at 70.5 h is 7.99%.
The result for `Cc1ccc(Cc2sc(NC(=O)C(C)S(C)(=O)=O)nc2C)cc1` (stereo not drawn) reads -3.98%; that for `Cn1nc(C(=O)NCc2cccc(Cn3ccnc3)c2)ccc1=O`, 3.47%.
Take `CC(=O)NC1CCCN(C(=O)Nc2nnc(C(C)C)s2)C1` (stereo not drawn): the cytotoxicity at 70.5 h is 0.76%.
Regarding `CC(C(=O)N1CCc2sccc2C1)N1CCC(N2CCCC2)CC1` (stereo not drawn), the cytotoxicity at 70.5 h stood at 0.91%.
Turning to `COc1cc(OC)c(CNC(=O)NCc2ccc(C#N)cc2)c(OC)c1`, the cytotoxicity at 70.5 h came to 3.35%.
Consider `N#Cc1ccc(NC2CCN(c3ncccn3)CC2)cc1Cl`, for which the cytotoxicity at 70.5 h is 7.18%.
On to `Cc1cc(C(=O)NS(C)(=O)=O)ccc1I`, for which the cytotoxicity at 70.5 h is -4.1%.
Turning to `Cn1ncnc1NS(=O)(=O)c1ccc(F)cc1`, the cytotoxicity at 70.5 h was -0.583%.
The result for `Cc1c(CNC(=O)C2CCCN2C(=O)C2CC2)oc2ccccc12` (stereo not drawn) reads -7.22%; that for `CCc1nsc(NC2CCOC3(CCCC3)C2)n1` (stereo not drawn), 1.42%; that for `CC(C)c1nnc(CNc2nc(-c3cccnc3)nc3c2CCC3)n1C`, -1.97%.
The result for `COC(=O)CCN1CCC(NC(=O)OC(C)(C)C)CC1` reads 1.05%.
Turning to `CCOCc1nnc(NCc2cccc(C)c2)o1`, the cytotoxicity at 70.5 h is -3.75%.
For the compound `CS(=O)(=O)N1CCC(Nc2ccc(C#N)c(C(F)(F)F)c2)CC1`, the cytotoxicity at 70.5 h turned out to be 8.33%.
The result for `Cc1ncc(CN(C)CC(O)c2ccc(OC(F)(F)F)cc2)s1` (stereo not drawn) reads -3.36%.
The result for `Cc1n[nH]c2ncc(CNC3CCCN(c4ncccn4)C3)cc12` (stereo not drawn) reads 0.0496%.
